Measured values published in patent US8338616B2, “Thiazoliums and their use for treating protein aging associated diseases” (Beijing Molecule Science And Technology Co., Ltd., priority 2008, dated 2012).

What was measured:
[1] = tested on: NaCl treated diabetic rats modeled with heart failure; assay: Chronic heart failure, first batch, ultrasonic cardiogram evaluation; assay type: in vivo, rat; conditions: 10th week of administration; valsartan 10 mg/kg, compound A 18 mg/kg ig
Method: The pharmacodynamic evaluation was conducted by using a noninvasive ultrasonic cardiogram method.
Evaluation indexes: (1) morphology indexes: left ventricular posterior wall dimensions (LVPWd), left ventricular diastasis internal diameter (LVDd), end systolic diameter (LVDs); (2) functional indexes: ejection fraction (EF), shortening fraction (FS), ventricular early blood flow filling rate (E), atrial filling rate (A) and ratio of E/A; Doppler tissue image; at cardiac apical four chamber view, the valve ring of anterior mitral valve was used as sampling point, peak early diastolic velocity (Ea peak), peak late diastolic velocity (Aa peak), and Ea/Aa ratio reflected the systolic and diastolic motion of the whole left ventricle.
SPSS statistic software was used to analyze and treat data, and all data were expressed in mean±standard deviation (Mean±SD).

[2] = tested on: AGEs; conditions: studies in rats, beagles (oral) and mice, CN200610002391.6; cited from earlier work

SMILES | LVDd and LVDs vs model [1] | PWd vs model [1] | breaking effect on AGEs [2]
CCCCC(=O)N(Cc1ccc(-c2ccccc2-c2nnn[nH]2)cc1)[C@H](C(=O)O)C(C)C [valsartan, reference compound] | slight decrease | slight increase | –
Cc1csc[n+]1CC(=O)OCc1ccccc1.[Br-] [3-benzyloxycarbonylmethyl-4-methyl-thiazole-3-bromide] | – | – | excellent breaking effect on AGEs
